Patent publication US4317912A, “Tetracyclic indole derivatives” (Farmitalia Carlo Erba S.p.A., priority 1979, dated 1982)

Key:
[1] = system: spontaneously hypertensive male rats, strain MHS; assay: Anti-hypertensive activity in spontaneously hypertensive rats (MHS), blood pressure and heart rate measured at the tail; format: in vivo, rat (spontaneously hypertensive; details: MHS rats; for Change in BP, 1st day, 1 hr after dose / Change in HR, 1st day, 1 hr after dose / Change in BP, 1st day, 5 hrs after dose / Change in HR, 1st day, 5 hrs after dose / Change in BP, 4th day, 1 hr after dose / Change in HR, 4th day, 1 hr after dose / Change in BP, 4th day, 5 hrs after dose / Change in HR, 4th day, 5 hrs after dose: mean of 4 animals
Experimental: Four spontaneously hypertensive male rats, strains MHS, weighing 250-300 g for each group were used.
The animals were treated for four consecutive days. Drugs were administered by gastric gavage, suspended in 5% arabic gum (0.2 ml/100 g body weight). Blood pressure (BP) and heart rate (HR) were measured at the tail by BP Recorder W+W. Blood pressure and heart rate were measured on the 1st and 4th day of treatment 1 hour before and 1 and 5 hours after drug administration.
*Data of LD50 from the literature. In Tables 1 and 2 are reported
the results of the study of the activity of compounds 355/1165 and
355/1166 upon the BP and HR (measured indirectly by means of a tail cuff)
of spontaneous hypertensive rats, MHS strain (4 rats each group). The
compounds were given orally, once a day for 4 consecutive days.

[2] = system: spontaneously hypertensive rats (Okamoto strain); assay: Anti-hypertensive activity in conscious spontaneously hypertensive rats (Okamoto), carotid artery catheter; format: in vivo, rat (spontaneously hypertensive
Experimental: Blood pressure recordings were made in conscious hypertensive unrestrained rats weighing approximately 300 g, via a catheter cronically inserted into the left common carotid artery. Implantation of arterial cannula was made under sodium pentobarbital anesthesia (50 mg/kg i.p.). A 1 cm long incision was made through the previously shaved ventral surface of the neck and the tissues overlying the trachea parted by blunt dissection to reveal the carotid artery. The polyethylene catheter used was made with PE 50 tubing, previously filled with saline containing 250 I.U./ml heparin. The tip of the cannula was pushed at least 2 cm inside the vessel toward the heart. The cannula was then firmly tied and passed beneath the skin to emerge from a small incision in the back of the neck. During the postoperative period and before the start of each recording session, the cannula was flushed through daily with saline containing heparin (250 U.I./ml). The experiments were performed two days after surgery. Drugs were administered by gastric gavage.

[3] = Acute (orientative) oral toxicity in mice; details: mouse, in vivo
Description: The male mice for each group were orally treated with drugs at different dose levels for the determination of orientative toxicity.

male mice = details: data of LD50 from the literature; cited from earlier work
[4] = 3 mg/kg os, 30', mean of 6 animals
[5] = 3 mg/kg os, 60', mean of 6 animals
[6] = 3 mg/kg os, 120', mean of 6 animals
[7] = 3 mg/kg os, 240', mean of 6 animals
[8] = 3 mg/kg os, 360', mean of 6 animals

For `CN1CC(CCC(N)=O)C2Cc3cccc4[nH]cc(c34)CC21` (stereo not drawn) [355/1226, Trans-5(10→9)abeo-6-methyl-ergoline-8β-propionamide], the “Change in BP, 1st day, 1 hr after dose” value ([1]; 1 mg/kg os, 1st day) was -32 mmHg, the “Change in HR, 1st day, 1 hr after dose” value ([1]; 1 mg/kg os, 1st day) was -20 b/min and the “Change in BP, 1st day, 5 hrs after dose” value ([1]; 1 mg/kg os, 1st day) was -27 mmHg. The “Change in HR, 1st day, 5 hrs after dose” value ([1]; 1 mg/kg os, 1st day) was “+3 b/min”, the “Change in BP, 4th day, 1 hr after dose” value ([1]; 1 mg/kg os, 4th day) was -21 mmHg and the “Change in HR, 4th day, 1 hr after dose” value ([1]; 1 mg/kg os, 4th day) was -5 b/min. For the same compound, the “Change in BP, 4th day, 5 hrs after dose” value ([1]; 1 mg/kg os, 4th day) was -42 mmHg, the “Change in HR, 4th day, 5 hrs after dose” value ([1]; 1 mg/kg os, 4th day) was -13 b/min and the “Change in BP, 1st day, 1 hr after dose” value ([1]; 3 mg/kg os, 1st day) was -47 mmHg. For the same compound, the “Change in HR, 1st day, 1 hr after dose” value ([1]; 3 mg/kg os, 1st day) was -20 b/min, the “Change in BP, 1st day, 5 hrs after dose” value ([1]; 3 mg/kg os, 1st day) was -57 mmHg and the “Change in HR, 1st day, 5 hrs after dose” value ([1]; 3 mg/kg os, 1st day) was -10 b/min. For the same compound, the “Change in BP, 4th day, 1 hr after dose” value ([1]; 3 mg/kg os, 4th day) was -40 mmHg, the “Change in HR, 4th day, 1 hr after dose” value ([1]; 3 mg/kg os, 4th day) was -40 b/min and the “Change in BP, 4th day, 5 hrs after dose” value ([1]; 3 mg/kg os, 4th day) was -42 mmHg. For the same compound, the “Change in HR, 4th day, 5 hrs after dose” value ([1]; 3 mg/kg os, 4th day) was -45 b/min, the “Effect on BP” value ([1]; 1 and 3 mg/kg per os) was “decreases BP; especially with the higher dose, this effect is remarkable and long lasting” and the “Antihypertensive activity compared with Hydralazine, 1st day” value ([1]; 1st day, 355/1165 2 mg/kg, 355/1226 3 mg/kg per os vs Hydralazine 3 mg/kg per os) was “more marked antihypertensive activity”. The “Antihypertensive effect compared with Hydralazine, 4th day” value ([1]; 4th day, 355/1165 2 mg/kg, 355/1226 3 mg/kg per os vs Hydralazine 3 mg/kg per os) was “even greater effect”, the “Tolerance after repeated administration” value ([1]; four days, 355/1165 2 mg/kg, 355/1226 3 mg/kg, 355/1225 and 355/1229 5 mg/kg per os) was “tolerance does not occur after repeated administration” and the “Activity compared with α-methyl-DOPA” value ([1]; 355/1165 2 mg/kg, 355/1226 3 mg/kg per os) was 50 times. The “Change in blood pressure after treatment, 30'” value [2, 4] was -19 mmHg, the “Change in heart rate after treatment, 30'” value [2, 4] was -33 b/min and the “Change in blood pressure after treatment, 60'” value [2, 5] was -28 mmHg. For the same compound, the “Change in heart rate after treatment, 60'” value [2, 5] was -30 b/min, the “Change in blood pressure after treatment, 120'” value [2, 6] was -40 mmHg and the “Change in heart rate after treatment, 120'” value [2, 6] was -23 b/min. For the same compound, the “Change in blood pressure after treatment, 240'” value [2, 7] was -32 mmHg, the “Change in heart rate after treatment, 240'” value [2, 7] was -16 b/min and the “Change in blood pressure after treatment, 360'” value [2, 8] was -25 mmHg. The “Change in heart rate after treatment, 360'” value [2, 8] was “+4 b/min”, the “Hypotensive activity compared with 355/1165 and 355/1166” value ([2]; 3 mg/kg per os) was “intermediate activity between compound 355/1165 and compound 355/1166” and the “Effect on heart rate” value ([2]; oral (Table 4)) was “slight bradycardia and never tachicardia”. It also gave an LD50 at 168 h [3] greater than 800 mg/kg.

In the case of `C[C@](N)(Cc1ccc(O)c(O)c1)C(=O)O` [α-Methyl-DOPA, reference compound], the “Change in BP, 1st day, 1 hr after dose” value ([1]; 30 mg/kg os, 1st day) is reported as -27 mmHg, the “Change in HR, 1st day, 1 hr after dose” value ([1]; 30 mg/kg os, 1st day) is reported as “+33 b/min” and the “Change in BP, 1st day, 5 hrs after dose” value ([1]; 30 mg/kg os, 1st day) is reported as -4 mmHg. For the same compound, the “Change in HR, 1st day, 5 hrs after dose” value ([1]; 30 mg/kg os, 1st day) was “+36 b/min”, the “Change in BP, 4th day, 1 hr after dose” value ([1]; 30 mg/kg os, 4th day) was -2 mmHg and the “Change in HR, 4th day, 1 hr after dose” value ([1]; 30 mg/kg os, 4th day) was “+50 b/min”. The “Change in BP, 4th day, 5 hrs after dose” value ([1]; 30 mg/kg os, 4th day) was 0 mmHg, the “Change in HR, 4th day, 5 hrs after dose” value ([1]; 30 mg/kg os, 4th day) was “+20 b/min” and the “Change in BP, 1st day, 1 hr after dose” value ([1]; 100 mg/kg os, 1st day) was -6 mmHg. For the same compound, the “Change in HR, 1st day, 1 hr after dose” value ([1]; 100 mg/kg os, 1st day) was “+73 b/min”, the “Change in BP, 1st day, 5 hrs after dose” value ([1]; 100 mg/kg os, 1st day) was -22 mmHg and the “Change in HR, 1st day, 5 hrs after dose” value ([1]; 100 mg/kg os, 1st day) was “+40 b/min”. The “Change in BP, 4th day, 1 hr after dose” value ([1]; 100 mg/kg os, 4th day) was -19 mmHg, the “Change in HR, 4th day, 1 hr after dose” value ([1]; 100 mg/kg os, 4th day) was “+70 b/min” and the “Change in BP, 4th day, 5 hrs after dose” value ([1]; 100 mg/kg os, 4th day) was -31 mmHg. For the same compound, the “Change in HR, 4th day, 5 hrs after dose” value ([1]; 100 mg/kg os, 4th day) was “+20 b/min”, the “Effect on heart rate” value ([1]; oral, all doses treated (Table 2)) was “no effect on heart rate” and the “LD50 (orientative toxicity in mice)” value (male mice) was 5300 mg/kg per os.
